Test system: Gram-negative and Gram-positive organisms (clinical isolates)
Assay: Broth microdilution MIC against clinical isolates (CLSI M7-A8), Table 9
Format: cell-based

## CN(C)c1cc(NC(=O)CNC(C)(C)C)c(O)c2c1C[C@H]1C[C@H]3[C@H](N(C)C)C(O)=C(C(N)=O)C(=O)[C@@]3(O)C(O)=C1C2=O [Tigecycline, tigecycline]
  MICs against tetracycline resistant isolates relative to tetracycline susceptible isolates: not notably altered

From patent publication US20170107179A1 (Tetraphase Pharmaceuticals, Inc., priority 2010, published 2017)
